Where two headings read alike, the source gives them in different places. Values belong to the compound of their own block, whether it stands above or below them.
How the values were obtained:
[1] = system: Nrf2; test: qPCR mRNA expression in HepG2-C8 cells; assay type: cell-based, human; settings: 25 μM, 6 h, vs 0.1% DMSO
Method: (§1) The cells were treated similarly to the NITS and ARE-luciferase assays described above using 10% FBS medium. The incubation of the compounds with the cells was terminated 6 h later. The mRNA expression was evaluated utilizing a quantitative real-time polymerase chain reaction (qPCR). An RNeasy kit from Qiagen was used for RNA extraction (Valencia, Calif.). The total RNA was reverse-transcribed to cDNA by TaqMan Reverse Transcription Reagents (Applied Biosystems Inc, Foster City, Calif.). SYBR Green (Applied Biosystems Inc, Foster City, Calif.) fluorescence was used to measure the product of qPCR. Glyceraldehyde 3-phosphate dehydrogenase (GAPDH) was used as the housekeeping gene, and the Applied Biosystems 7900HT Fast Real-Time PCR System (Applied Biosystems Inc, Foster City, Calif.) was used as described previously (Saw et al., Biochem Pharmacol 2010; 79: 421-430) to detect quantitatively the induction of mRNA of Nrf2, phase II DME GSTm2, NAD (P)H dehydrogenase, quinone 1 (NQO1), UGT family, polypeptide A1 (UGT1A1) and antioxidant enzymes HO-1, superoxide dismutase 1 (SOD1). The primer pairs were designed using the Primer Quest Oligo Design and Analysis Tool by Integrated DNA Technologies Inc. (Coralville, Iowa, USA) and the sequences are listed in Table 4. At least four wells of each treatment were performed and duplicate samples were carried out for each treatment.

[2] = system: HO-1; test: qPCR mRNA expression in HepG2-C8 cells; assay type: cell-based, human; settings: 25 μM, 6 h, vs 0.1% DMSO
Method: as §1

[3] = oral; cited from earlier work
[4] = system: HepG2-C8 cells; test: MTS cell viability assay; assay type: cell-based, human
Method: The stably transfected single clone HepG2-ARE-C8 (HepG2-C8) cell line has been established previously in our laboratory using the […]-luciferase reporter gene. The cells were maintained in Dulbecco's modified Eagle medium supplemented with 10% fetal bovine serum (FBS), 1.17 g/l sodium bicarbonate, and 100 unit/ml penicillin, 100 μg/ml streptomycin at 37° C. in a humidified incubator with 5% CO2. […] MTS] (Promega, Madison, Wis.). […] The cells were then treated with MTS for 1 h at 37° C. Absorbance of the formazan product was read at 490 nm with a μQuant Biomolecular Spectrophotometer from Bio-Tek Instruments Inc. (Winooski, Vt.). Independent control studies were conducted using 1% and 10% FBS medium.

[5] = system: antioxidant response element (ARE); test: ARE-luciferase reporter assay with combination index calculation; assay type: cell-based, human
Method: The stably transfected single clone HepG2-ARE-C8 (HepG2-C8) cell line has been established previously in our laboratory using the […]-luciferase reporter gene. The cells were maintained in Dulbecco's modified Eagle medium supplemented with 10% fetal bovine serum (FBS), 1.17 g/l sodium bicarbonate, and 100 unit/ml penicillin, 100 μg/ml streptomycin at 37° C. in a humidified incubator with 5% CO2. The HepG2-C8 cells were cultured in 12-well plates and each well contained 1 million cells in 1 ml of 10% FRS medium. The cells were treated with compounds for 24 h. The luciferase activity was determined using a luciferase kit from Promega (Madison, USA) according to the manufacturer's instructions. Briefly, after treatments for 24 h, the cells were washed twice with ice-cold phosphate buffered-saline (PBS, pH 7.4) and harvested in 1× reporter lysis buffer and […]. After centrifugation at 4° C., 12000 rpm for 5 min, a 10 μl aliquot of the supernatant was assayed for luciferase activity with a Sirius luminometer (Berthold Detection System GmbH, Pforzheim, Germany). The luciferase activity was normalized against protein concentration, determined by a BCA protein assay (Pierce, Rockford, USA), and expressed as the fold induction over the luciferase activity of control vehicle-treated cells. At least two to three independent studies were conducted in triplicates. To determine the synergistic effect between the combination of two different compounds, the combination index (CI) was calculated with the following formula: […] This approach is based on the Loewe additivity model and although the exact mechanism of interaction may be unknown, this model is one of the most commonly used reference models for evaluating potential drug-drug interactions Lee et al., J Biopharm Stat 2007; 17: 461-480).

[6] = system: NQO1; test: qPCR mRNA expression in HepG2-C8 cells; assay type: cell-based, human; settings: 6 h
Method: as §1

[7] = system: first 5 CpGs in the promoter region of Nrf2 gene; settings: TRAMP C1 cells, other DNA de-methylating agents; cited from earlier work
[8] = Homo sapiens, HepG2C8, 1% FBS medium, read-out: cell viability inhibitory concentrations (IC50)

IC50 ([4]; 1% FBS medium, read-out: cell viability inhibitory concentrations (IC50)): 135 µM | IC50 ([4]; 10% FBS medium (data not shown), read-out: cell viability IC50): 300 µM
Compound: OCc1c[nH]c2ccccc12 [I3C, indole-3-carbinol]
Nrf2 mRNA induction over control [1]: did not show significant induction | HO-1 mRNA induction over control [2]: did not show significant induction | tolerability [3]: well tolerated | induction of ARE-luciferase ([5]; doses lower than 25 μM, 10% FBS medium (data not shown)): no significant induction

Compound: S=C=NCCc1ccccc1 [PEITC, phenethyl isothiocyanate]
NQO1 gene expression ([6]; 1 μM): greatly induced | IC50 [4, 8]: ~20 µM

IC50 [4, 8]: ~20 µM
Compound: C[S+]([O-])CCCCN=C=S (stereo not drawn) [SFN, sulforaphane]
NQO1 gene expression ([6]; any concentration): not significantly induced | time of peak induction of ARE-luciferase activity ([5]; time course study, after treatment): 18 h

Compound: COc1cc(/C=C/C(=O)CC(=O)/C=C/c2ccc(O)c(OC)c2)ccc1O [curcumin]
CpG methylation of the first 5 CpGs of the promoter of Nrf2 gene [7]: decreased CpG methylation

— patent US8916604B2, “Compositions and methods for epigenetic modification of nucleic acid sequences” (Rutgers, The State University of New Jersey, priority 2011, dated 2014)
